We go through nine compounds from patent US10004701B2, “Methods and compositions for treating infection” (UNIVERSITY OF ROCHESTER, priority 2012, dated 2018).

Counter-ions that a name gives are not always drawn. Like-named read-outs stand apart in the source and are kept apart here.

Holding throughout (experiment): AK assay 384-well format, Prestwick library screening
One experiment deals with E. faecium. Format: cell-based, Enterococcus faecium. The conditions noted are these: 50 μM final drug concentration; for fold induction at 50 µM: Enterococcus faecium, 3 h.
In experiment [1] the test system is S. aureus strain USA300-0114. Format: cell-based, Staphylococcus aureus. The settings on record: 50 μM final drug concentration; for fold induction at 50 µM: Staphylococcus aureus, USA300, 3 h.
The subject of a further experiment is K. pneumoniae. Type of experiment: cell-based, Klebsiella pneumoniae. The conditions noted are these: 50 μM final drug concentration; for fold induction at 50 µM: Klebsiella pneumoniae, 3 h.
The test system of experiment [2] is A. baumannii strain 98-37-09. Type of experiment: cell-based, Acinetobacter baumannii. The conditions noted are these: 50 μM final drug concentration; for fold induction at 50 µM: Acinetobacter baumannii, 983709, 3 h.
Another experiment concerns P. aeruginosa. Format: cell-based, Pseudomonas aeruginosa. The settings on record: 50 μM final drug concentration; for fold induction at 50 µM: Pseudomonas aeruginosa, 3 h.
The test system of the next experiment is E. cloacae. Format: cell-based, Enterobacter cloacae. The conditions noted are these: 50 μM final drug concentration; for fold induction at 50 µM: Enterobacter cloacae, 3 h.
Another experiment has as its system E. coli. Type of experiment: cell-based, Escherichia coli. The settings on record: 50 μM final drug concentration; for fold induction at 50 µM: Escherichia coli, 3 h.
The mark [3] stands for this setting: planktonic E. faecium, 384-well, cutoff for positive-scoring molecules 3-fold increase, read-out: AK-based Prestwick Library Screening Results: E. faecium (increase in extracellular AK activity).
The mark [4] stands for this setting: planktonic S. aureus, 384-well, cutoff for positive-scoring molecules 3-fold increase, read-out: AK-based Prestwick Library Screening Results: S. aureus (increase in extracellular AK activity).
Where [5] appears, read: planktonic K. pneumoniae, 384-well, cutoff for positive-scoring molecules 3-fold increase, read-out: AK-based Prestwick Library Screening Results: K. pneumoniae (increase in extracellular AK activity).
Setting [6] is: planktonic A. baumannii, 384-well, cutoff for positive-scoring molecules 3-fold increase, read-out: AK-based Prestwick Library Screening Results: A. baumannii (increase in extracellular AK activity).
[7] abbreviates: planktonic P. aeruginosa, 384-well, cutoff for positive-scoring molecules 3-fold increase, read-out: AK-based Prestwick Library Screening Results: P. aeruginosa (increase in extracellular AK activity).
The mark [8] stands for this setting: planktonic E. cloacae, 384-well, cutoff for positive-scoring molecules 3-fold increase, read-out: AK-based Prestwick Library Screening Results: E. cloacae (increase in extracellular AK activity).
[9] abbreviates: planktonic E. coli, 384-well, cutoff for positive-scoring molecules 3-fold increase, read-out: AK-based Prestwick Library Screening Results: E. coli (increase in extracellular AK activity).
[10] abbreviates: planktonic, cutoff for positive-scoring molecules 3-fold increase.
[11] abbreviates: cutoff for positive-scoring molecules 3-fold increase, read-out: AK-based Prestwick Library Screening Results, E. faecium (fold increase in extracellular AK activity).
The mark [12] stands for this setting: cutoff for positive-scoring molecules 3-fold increase, read-out: AK-based Prestwick Library Screening Results, S. aureus (fold increase in extracellular AK activity).
The mark [13] stands for this setting: cutoff for positive-scoring molecules 3-fold increase, read-out: AK-based Prestwick Library Screening Results, K. pneumoniae (fold increase in extracellular AK activity).
Setting [14] is: cutoff for positive-scoring molecules 3-fold increase, read-out: AK-based Prestwick Library Screening Results, A. baumannii (fold increase in extracellular AK activity).
The mark [15] stands for this setting: cutoff for positive-scoring molecules 3-fold increase, read-out: AK-based Prestwick Library Screening Results, P. aeruginosa (fold increase in extracellular AK activity).
Where [16] appears, read: cutoff for positive-scoring molecules 3-fold increase, read-out: AK-based Prestwick Library Screening Results, E. cloacae (fold increase in extracellular AK activity).
Setting [17] is: cutoff for positive-scoring molecules 3-fold increase, read-out: AK-based Prestwick Library Screening Results, E. coli (fold increase in extracellular AK activity).

Turning to `Nc1ccc(O)c(C(=O)O)c1` [Mesalamine], the fold induction at 50 µM was found to be 0.9 in the experiment with E. faecium (planktonic E. faecium, positive cutoff 3-fold increase, read-out: AK-based Prestwick library screening result, E. faecium (fold increase in extracellular AK activity)); 0.7 in experiment [1] (planktonic S. aureus, positive cutoff 3-fold increase, read-out: AK-based Prestwick library screening result, S. aureus (fold increase in extracellular AK activity)); 0.7 in the experiment with K. pneumoniae (planktonic K. pneumoniae, positive cutoff 3-fold increase, read-out: AK-based Prestwick library screening result, K. pneumoniae (fold increase in extracellular AK activity)); 0.9 in experiment [2] (planktonic A. baumannii, positive cutoff 3-fold increase, read-out: AK-based Prestwick library screening result, A. baumannii (fold increase in extracellular AK activity)); 0.9 in the experiment on P. aeruginosa (planktonic P. aeruginosa, positive cutoff 3-fold increase, read-out: AK-based Prestwick library screening result, P. aeruginosa (fold increase in extracellular AK activity)); 1 in the experiment on E. cloacae (planktonic E. cloacae, positive cutoff 3-fold increase, read-out: AK-based Prestwick library screening result, E. cloacae (fold increase in extracellular AK activity)). Also, the fold induction at 50 µM with E. coli (planktonic E. coli, positive cutoff 3-fold increase, read-out: AK-based Prestwick library screening result, E. coli (fold increase in extracellular AK activity)) stood at 0.9.
As for `O=C1NCC2(CCN(CCc3ccccc3)CC2)O1` [Fenspiride hydrochloride], the fold induction at 50 µM was found to be 1 in the experiment on E. faecium (setting [3]); 1.1 in experiment [1] (setting [4]); 1 in the experiment on K. pneumoniae (setting [5]); 1.2 in experiment [2] (setting [6]); 1.1 in the experiment with P. aeruginosa (setting [7]); 1.6 in the experiment on E. cloacae (setting [8]). In addition, the fold induction at 50 µM in the experiment with E. coli (setting [9]) amounted to 1.3.
In the case of `Nc1ccc(S(=O)(=O)Nc2nccs2)cc1` [Sulfathiazole], the fold induction at 50 µM with E. faecium (384-well format, cutoff for positive-scoring molecules 3-fold increase, read-out: AK-based Prestwick Library Screening Results, E. faecium (increase in extracellular AK activity)) stood at 0.9; in experiment [1] (384-well format, cutoff for positive-scoring molecules 3-fold increase, read-out: AK-based Prestwick Library Screening Results, S. aureus (increase in extracellular AK activity)), 0.6; in the experiment with K. pneumoniae (384-well format, cutoff for positive-scoring molecules 3-fold increase, read-out: AK-based Prestwick Library Screening Results, K. pneumoniae (increase in extracellular AK activity)) it was 0.6; in experiment [2] (384-well format, cutoff for positive-scoring molecules 3-fold increase, read-out: AK-based Prestwick Library Screening Results, A. baumannii (increase in extracellular AK activity)), 1; in the experiment on P. aeruginosa (384-well format, cutoff for positive-scoring molecules 3-fold increase, read-out: AK-based Prestwick Library Screening Results, P. aeruginosa (increase in extracellular AK activity)) it was 0.6; with E. cloacae (384-well format, cutoff for positive-scoring molecules 3-fold increase, read-out: AK-based Prestwick Library Screening Results, E. cloacae (increase in extracellular AK activity)), 0.7. In the experiment with E. coli (384-well format, cutoff for positive-scoring molecules 3-fold increase, read-out: AK-based Prestwick Library Screening Results, E. coli (increase in extracellular AK activity)), the fold induction at 50 µM came out at 0.7.
For `CN1CCC2=C[C@H](O)[C@H]3OC(=O)c4cc5c(cc4[C@H]3[C@@H]21)OCO5` [Hippeastrine hydrobromide], in the experiment on E. faecium (setting [10]), the “AK-based Prestwick Library Screening Results, E. faecium (fold increase in extracellular AK activity)” value is recorded as 0.9. In experiment [1] (setting [10]), the “AK-based Prestwick Library Screening Results, S. aureus (fold increase in extracellular AK activity)” value is listed as 0.7. Besides, in the experiment with K. pneumoniae (setting [10]), the “AK-based Prestwick Library Screening Results, K. pneumoniae (fold increase in extracellular AK activity)” value amounted to 0.6. Also, the “AK-based Prestwick Library Screening Results, A. baumannii (fold increase in extracellular AK activity)” value in experiment [2] (setting [10]) is on record as 0.8. Moreover, the “AK-based Prestwick Library Screening Results, P. aeruginosa (fold increase in extracellular AK activity)” value in the experiment with P. aeruginosa (setting [10]) came out at 0.9. The “AK-based Prestwick Library Screening Results, E. cloacae (fold increase in extracellular AK activity)” value in the experiment with E. cloacae (setting [10]) came out at 1.4. Further, in the experiment on E. coli (setting [10]), the “AK-based Prestwick Library Screening Results, E. coli (fold increase in extracellular AK activity)” value was 0.9.
Regarding `COc1ccc2c(c1)c(CC(=O)OCC(=O)O)c(C)n2C(=O)c1ccc(Cl)cc1` [Acemetacin], the fold induction at 50 µM with E. faecium (setting [3]) came to 1; in experiment [1] (setting [4]) it was 1.1; with K. pneumoniae (setting [5]), 0.9; in experiment [2] (setting [6]), 1.1; in the experiment with P. aeruginosa (setting [7]) it was 1.1; in the experiment with E. cloacae (setting [8]), 1.3. Further, in the experiment on E. coli (setting [9]), the fold induction at 50 µM came to 1.2.
Regarding `OC(CCN1CCCC1)(c1ccccc1)C1CCCCC1` (stereo not drawn) [Procyclidine hydrochloride], the fold induction at 50 µM in the experiment on E. faecium (setting [11]) came to 1.1; in experiment [1] (setting [12]), 1.2; with K. pneumoniae (setting [13]), 0.9; in experiment [2] (setting [14]), 1.1; in the experiment on P. aeruginosa (setting [15]) it was 1.2; in the experiment with E. cloacae (setting [16]), 1.8. Further, in the experiment on E. coli (setting [17]), the fold induction at 50 µM came out at 1.4.
Regarding `CC(=O)OC(C)C[N+](C)(C)C` (stereo not drawn) [Methacholine chloride], the fold induction at 50 µM stood at 0.9 with E. faecium (planktonic, cutoff for positive-scoring molecules 3-fold increase, read-out: AK-based Prestwick Library Screening Results, E. faecium (fold increase in extracellular AK activity)); 0.7 in experiment [1] (planktonic, cutoff for positive-scoring molecules 3-fold increase, read-out: AK-based Prestwick Library Screening Results, S. aureus (fold increase in extracellular AK activity)); 0.7 with K. pneumoniae (planktonic, cutoff for positive-scoring molecules 3-fold increase, read-out: AK-based Prestwick Library Screening Results, K. pneumoniae (fold increase in extracellular AK activity)); 0.8 in experiment [2] (planktonic, cutoff for positive-scoring molecules 3-fold increase, read-out: AK-based Prestwick Library Screening Results, A. baumannii (fold increase in extracellular AK activity)); 0.9 in the experiment with P. aeruginosa (planktonic, cutoff for positive-scoring molecules 3-fold increase, read-out: AK-based Prestwick Library Screening Results, P. aeruginosa (fold increase in extracellular AK activity)); 1.3 in the experiment on E. cloacae (planktonic, cutoff for positive-scoring molecules 3-fold increase, read-out: AK-based Prestwick Library Screening Results, E. cloacae (fold increase in extracellular AK activity)). Also, the fold induction at 50 µM in the experiment with E. coli (planktonic, cutoff for positive-scoring molecules 3-fold increase, read-out: AK-based Prestwick Library Screening Results, E. coli (fold increase in extracellular AK activity)) is 0.9.
Regarding `COc1cc([C@@H]2c3cc4c(cc3[C@H](O)[C@H]3COC(=O)[C@H]23)OCO4)cc(OC)c1OC` [Podophyllotoxin], the fold induction at 50 µM with E. faecium ([…], read-out: AK-based Prestwick Library Screening Results, E. faecium (fold increase in extracellular AK activity)) came out at 0.9; in experiment [1] ([…], read-out: AK-based Prestwick Library Screening Results, S. aureus (fold increase in extracellular AK activity)) it was 1; with K. pneumoniae ([…], read-out: AK-based Prestwick Library Screening Results, K. pneumoniae (fold increase in extracellular AK activity)), 1.2; in experiment [2] ([…], read-out: AK-based Prestwick Library Screening Results, A. baumannii (fold increase in extracellular AK activity)) it was 1.2; in the experiment on P. aeruginosa ([…], read-out: AK-based Prestwick Library Screening Results, P. aeruginosa (fold increase in extracellular AK activity)), 1.1; in the experiment on E. cloacae ([…], read-out: AK-based Prestwick Library Screening Results, E. cloacae (fold increase in extracellular AK activity)), 1.3. Further, in the experiment with E. coli ([…], read-out: AK-based Prestwick Library Screening Results, E. coli (fold increase in extracellular AK activity)), the fold induction at 50 µM was found to be 1.2.
In the case of `CCC1NC(=O)c2cc(S(N)(=O)=O)c(Cl)cc2N1` (stereo not drawn) [Quinethazone], the fold induction at 50 µM in the experiment on E. faecium (setting [11]) came out at 0.9; in experiment [1] (setting [12]), 0.4; in the experiment with K. pneumoniae (setting [13]) it was 0.6; in experiment [2] (setting [14]) it was 0.5; in the experiment with P. aeruginosa (setting [15]), 0.5; with E. cloacae (setting [16]) it was 0.4. The fold induction at 50 µM in the experiment with E. coli (setting [17]) is 0.6.
